In US9359358B2, “Cyclohexyl azetidine derivatives as JAK inhibitors” (Incyte Holdings Corporation, priority 2011, dated 2016):
Where a name gives a salt, the structure may show the parent alone.

Assays:
[1] = biological target: T1, human JAK1 (Homo sapiens, UniProt P23458); assay: In Vitro JAK Kinase Assay (HTRF, phosphorylation of a biotinylated peptide), JAK1; format: biochemical; settings: Table 4; catalytic domain a.a. 837-1142, assay of Example A
T1 construct: human JAK1 (a.a. 837-1142); His tag (N); made in house; host or cells: insect cells (baculovirus)
Procedure, shortened: (§1)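 HTRF detection (SA-APC plus Eu-labeled anti-phosphotyrosine Py20, 40 min after EDTA stop) quantified biotinylated-peptide phosphorylation. Kinase reactions with human JAK1 or JAK2 catalytic domains lasted 1 h at room temperature.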

[2] = biological target: T2, human JAK2 (Homo sapiens, UniProt O60674); assay: In Vitro JAK Kinase Assay (HTRF, phosphorylation of a biotinylated peptide), JAK2; format: biochemical; settings: Table 4; assay of Example A
T2 construct: JAK2 (a.a. 828-1132); His tag (N); made in house; host or cells: insect cells (baculovirus)
Procedure, shortened: as §1

T1 sequence (P23458 849-1154): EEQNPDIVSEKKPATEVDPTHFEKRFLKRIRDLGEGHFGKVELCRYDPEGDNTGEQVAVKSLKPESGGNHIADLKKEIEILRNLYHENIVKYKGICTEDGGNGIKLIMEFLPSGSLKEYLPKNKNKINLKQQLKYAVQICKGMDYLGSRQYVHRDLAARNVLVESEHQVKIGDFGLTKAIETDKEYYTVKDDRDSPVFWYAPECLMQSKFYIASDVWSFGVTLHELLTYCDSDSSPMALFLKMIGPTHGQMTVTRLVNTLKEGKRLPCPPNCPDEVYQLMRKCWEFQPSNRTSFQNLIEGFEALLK
T2 sequence (O60674 828-1132): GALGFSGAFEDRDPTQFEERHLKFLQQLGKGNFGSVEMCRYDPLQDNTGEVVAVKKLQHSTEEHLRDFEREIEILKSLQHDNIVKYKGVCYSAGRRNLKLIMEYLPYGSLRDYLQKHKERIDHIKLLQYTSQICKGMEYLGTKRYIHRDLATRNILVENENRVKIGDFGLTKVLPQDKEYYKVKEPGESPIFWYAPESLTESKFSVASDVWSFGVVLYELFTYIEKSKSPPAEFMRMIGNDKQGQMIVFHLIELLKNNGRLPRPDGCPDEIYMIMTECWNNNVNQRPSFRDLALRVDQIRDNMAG

SMILES: N#CCC1(n2cc(-c3ncnc4[nH]ccc34)cn2)CN([C@H]2CC[C@@H](Oc3cc(CN4CC(F)C4)nc(C(F)(F)F)n3)CC2)C1 [Example 37, {1-(cis-4-{[6-[(3-fluoroazetidin-1-yl)methyl]-2-(trifluoromethyl)pyrimidin-4-yl]oxy}cyclohexyl)-3-[4-(7H-pyrrolo[2,3-d]pyrimidin-4-yl)-1H-pyrazol-1-yl]azetidin-3-yl}acetonitrile tris(trifluoroacetate)]
- IC50 [1]: < 10 nM
- JAK2/JAK1 IC50 ratio [2]: ≧10

SMILES: N#CCC1(n2cc(-c3ncnc4[nH]ccc34)cn2)CN([C@H]2CC[C@@H](Oc3cc(CNCC4(CO)CC4)nc(C(F)(F)F)n3)CC2)C1 [Example 38, {1-(cis-4-{[6-[({[1-(hydroxymethyl)cyclopropyl]methyl}-amino)methyl]-2-(trifluoromethyl)pyrimidin-4-yl]oxy}cyclohexyl)-3-[4-(7H-pyrrolo[2,3-d]pyrimidin-4-yl)-1H-pyrazol-1-yl]azetidin-3-yl}acetonitrile tris(trifluoroacetate) (salt)]
- IC50 [1]: < 10 nM
- JAK2/JAK1 IC50 ratio [2]: ≧10

SMILES: COCCCNCc1cc(O[C@H]2CC[C@@H](N3CC(CC#N)(n4cc(-c5ncnc6[nH]ccc56)cn4)C3)CC2)nc(C(F)(F)F)n1 [Example 40, {1-(cis-4-{[6-{[(3-methoxypropyl)amino]methyl}-2-(trifluoromethyl)pyrimidin-4-yl]oxy}cyclohexyl)-3-[4-(7H-pyrrolo[2,3-d]pyrimidin-4-yl)-1H-pyrazol-1-yl]azetidin-3-yl}acetonitrile tris(trifluoroacetate)]
- IC50 [1]: < 10 nM
- JAK2/JAK1 IC50 ratio [2]: ≧10

SMILES: COCC(C)NCc1cc(O[C@H]2CC[C@@H](N3CC(CC#N)(n4cc(-c5ncnc6[nH]ccc56)cn4)C3)CC2)nc(C(F)(F)F)n1 (stereo partly drawn) [Example 41, {1-(cis-4-{[6-{[(2-methoxy-1-methylethyl)amino]methyl}-2-(trifluoromethyl)pyrimidin-4-yl]oxy}cyclohexyl)-3-[4-(7H-pyrrolo[2,3-d]pyrimidin-4-yl)-1H-pyrazol-1-yl]azetidin-3-yl}acetonitrile tris(trifluoroacetate)]
- IC50 [1]: < 10 nM
- JAK2/JAK1 IC50 ratio [2]: ≧10

SMILES: COCCN(C)Cc1cc(O[C@H]2CC[C@@H](N3CC(CC#N)(n4cc(-c5ncnc6[nH]ccc56)cn4)C3)CC2)nc(C(F)(F)F)n1.O=C(O)C(F)(F)F.O=C(O)C(F)(F)F.O=C(O)C(F)(F)F [Example 42, {1-(cis-4-{[6-{[(2-methoxyethyl)(methyl)amino]methyl}-2-(trifluoromethyl)pyrimidin-4-yl]oxy}cyclohexyl)-3-[4-(7H-pyrrolo[2,3-d]pyrimidin-4-yl)-1H-pyrazol-1-yl]azetidin-3-yl}acetonitrile tris(trifluoroacetate)]
- IC50 [1]: < 10 nM
- JAK2/JAK1 IC50 ratio [2]: ≧10

SMILES: CC(C)(O)c1cc(O[C@H]2CC[C@@H](N3CC(CC#N)(n4cc(-c5ncnc6[nH]ccc56)cn4)C3)CC2)nc(C(F)(F)F)n1 [Example 43, {1-(cis-4-{[6-(1-Hydroxy-1-methylethyl)-2-(trifluoromethyl)pyrimidin-4-yl]oxy}cyclohexyl)-3-[4-(7H-pyrrolo[2,3-d]pyrimidin-4-yl)-1H-pyrazol-1-yl]azetidin-3-yl}acetonitrile bis(trifluoroacetate)]
- IC50 [1]: < 10 nM
- JAK2/JAK1 IC50 ratio [2]: ≧10

SMILES: CC(C)(C)NCc1cc(O[C@H]2CC[C@@H](N3CC(CC#N)(n4cc(-c5ncnc6[nH]ccc56)cn4)C3)CC2)nc(C(F)(F)F)n1 [Example 44, {1-(cis-4-{[6-[(tert-Butylamino)methyl]-2-(trifluoromethyl)pyrimidin-4-yl]oxy}cyclohexyl)-3-[4-(7H-pyrrolo[2,3-d]pyrimidin-4-yl)-1H-pyrazol-1-yl]azetidin-3-yl}acetonitrile tetrakis(trifluoroacetate)]
- IC50 [1]: < 10 nM
- JAK2/JAK1 IC50 ratio [2]: ≧10

SMILES: N#CCC1(n2cc(-c3ncnc4[nH]ccc34)cn2)CN([C@H]2CC[C@@H](Oc3cc(CCO)nc(C(F)(F)F)n3)CC2)C1 [Example 45, {1-(cis-4-{[6-(2-hydroxyethyl)-2-(trifluoromethyl)pyrimidin-4-yl]oxy}cyclohexyl)-3-[4-(7H-pyrrolo[2,3-d]pyrimidin-4-yl)-1H-pyrazol-1-yl]azetidin-3-yl}acetonitrile tris(trifluoroacetate)]
- IC50 [1]: < 10 nM
- JAK2/JAK1 IC50 ratio [2]: ≧10

SMILES: CN(C)C(=O)c1cc(O[C@H]2CC[C@@H](N3CC(CC#N)(n4cc(-c5ncnc6[nH]ccc56)cn4)C3)CC2)nc(C(F)(F)F)n1 [Example 46, 6-[(cis-4-{3-(cyanomethyl)-3-[4-(7H-pyrrolo[2,3-d]pyrimidin-4-yl)-1H-pyrazol-1-yl]azetidin-1-yl}cyclohexyl)oxy]-N,N-dimethyl-2-(trifluoromethyl)pyrimidine-4-carboxamide bis(trifluoroacetate)]
- IC50 [1]: < 10 nM
- JAK2/JAK1 IC50 ratio [2]: ≧10

SMILES: CCN(C)C(=O)c1cc(O[C@H]2CC[C@@H](N3CC(CC#N)(n4cc(-c5ncnc6[nH]ccc56)cn4)C3)CC2)nc(C(F)(F)F)n1 [Example 48, 6-[(cis-4-{3-(cyanomethyl)-3-[4-(7H-pyrrolo[2,3-d]pyrimidin-4-yl)-1H-pyrazol-1-yl]azetidin-1-yl}cyclohexyl)oxy]-N-ethyl-N-methyl-2-(trifluoromethyl)pyrimidine-4-carboxamide bis(trifluoroacetate)]
- IC50 [1]: < 10 nM
- JAK2/JAK1 IC50 ratio [2]: ≧10

SMILES: CCNC(=O)c1cc(O[C@H]2CC[C@@H](N3CC(CC#N)(n4cc(-c5ncnc6[nH]ccc56)cn4)C3)CC2)nc(C(F)(F)F)n1 [Example 49, 6-[(cis-4-{3-(cyanomethyl)-3-[4-(7H-pyrrolo[2,3-d]pyrimidin-4-yl)-1H-pyrazol-1-yl]azetidin-1-yl}cyclohexyl)oxy]-N-ethyl-2-(trifluoromethyl)pyrimidine-4-carboxamide bis(trifluoroacetate)]
- IC50 [1]: < 10 nM
- JAK2/JAK1 IC50 ratio [2]: ≧10

SMILES: COCCNC(=O)c1cc(O[C@H]2CC[C@@H](N3CC(CC#N)(n4cc(-c5ncnc6[nH]ccc56)cn4)C3)CC2)nc(C(F)(F)F)n1 [Example 50, 6-[(cis-4-{3-(cyanomethyl)-3-[4-(7H-pyrrolo[2,3-d]pyrimidin-4-yl)-1H-pyrazol-1-yl]azetidin-1-yl}cyclohexyl)oxy]-N-(2-methoxyethyl)-2-(trifluoromethyl)pyrimidine-4-carboxamide bis(trifluoroacetate)]
- IC50 [1]: < 10 nM
- JAK2/JAK1 IC50 ratio [2]: ≧10

SMILES: N#CCC1(n2cc(-c3ncnc4[nH]ccc34)cn2)CN([C@H]2CC[C@@H](Oc3cc(C(=O)N4CCCC4)nc(C(F)(F)F)n3)CC2)C1 [Example 51, {1-(cis-4-{[6-(pyrrolidin-1-ylcarbonyl)-2-(trifluoromethyl)pyrimidin-4-yl]oxy}cyclohexyl)-3-[4-(7H-pyrrolo[2,3-d]pyrimidin-4-yl)-1H-pyrazol-1-yl]azetidin-3-yl}acetonitrile bis(trifluoroacetate)]
- IC50 [1]: < 10 nM
- JAK2/JAK1 IC50 ratio [2]: ≧10

SMILES: CC(C)(CO)NCc1cc(O[C@H]2CC[C@@H](N3CC(CC#N)(n4cc(-c5ncnc6[nH]ccc56)cn4)C3)CC2)nc(C(F)(F)F)n1.O=C(O)C(F)(F)F.O=C(O)C(F)(F)F.O=C(O)C(F)(F)F.O=C(O)C(F)(F)F [Example 52, {1-(cis-4-{[6-{[(2-hydroxy-1,1-dimethylethyl)amino]methyl}-2-(trifluoromethyl)pyrimidin-4-yl]oxy}cyclohexyl)-3-[4-(7H-pyrrolo[2,3-d]pyrimidin-4-yl)-1H-pyrazol-1-yl]azetidin-3-yl}acetonitrile tetrakis(trifluoroacetate) (salt)]
- IC50 [1]: < 10 nM
- JAK2/JAK1 IC50 ratio [2]: ≧10

SMILES: CC1(NCc2cc(O[C@H]3CC[C@@H](N4CC(CC#N)(n5cc(-c6ncnc7[nH]ccc67)cn5)C4)CC3)nc(C(F)(F)F)n2)CC1.O=C(O)C(F)(F)F.O=C(O)C(F)(F)F.O=C(O)C(F)(F)F [Example 53, {1-(cis-4-{[6-{[(1-methylcyclopropyl)amino]methyl}-2-(trifluoromethyl)pyrimidin-4-yl]oxy}cyclohexyl)-3-[4-(7H-pyrrolo[2,3-d]pyrimidin-4-yl)-1H-pyrazol-1-yl]azetidin-3-yl}acetonitrile tris(trifluoroacetate)]
- IC50 [1]: < 10 nM
- JAK2/JAK1 IC50 ratio [2]: ≧10

SMILES: N#CCC1(n2cc(-c3ncnc4[nH]ccc34)cn2)CN([C@H]2CC[C@@H](Oc3cc(C#N)nc(C(F)(F)F)n3)CC2)C1 [Example 54, 6-[(cis-4-{3-(cyanomethyl)-3-[4-(7H-pyrrolo[2,3-d]pyrimidin-4-yl)-1H-pyrazol-1-yl]azetidin-1-yl}cyclohexyl)oxy]-2-(trifluoromethyl)pyrimidine-4-carbonitrile bis(trifluoroacetate)]
- IC50 [1]: < 10 nM
- JAK2/JAK1 IC50 ratio [2]: ≧10

SMILES: N#CCC1(n2cc(-c3ncnc4[nH]ccc34)cn2)CN([C@H]2CC[C@@H](Oc3cc(OCCO)nc(C(F)(F)F)n3)CC2)C1 [Example 56, {1-(cis-4-{[6-(2-hydroxyethoxy)-2-(trifluoromethyl)pyrimidin-4-yl]oxy}cyclohexyl)-3-[4-(7H-pyrrolo[2,3-d]pyrimidin-4-yl)-1H-pyrazol-1-yl]azetidin-3-yl}acetonitrile bis(trifluoroacetate) (salt)]
- IC50 [1]: < 10 nM
- JAK2/JAK1 IC50 ratio [2]: ≧10

SMILES: N#CCC1(n2cc(-c3ncnc4[nH]ccc34)cn2)CN([C@H]2CC[C@@H](Oc3cc(CCF)nc(C(F)(F)F)n3)CC2)C1 [Example 60, {1-(cis-4-{[6-(2-fluoro ethyl)-2-(trifluoromethyl)pyrimidin-4-yl]oxy}cyclohexyl)-3-[4-(7H-pyrrolo[2,3-d]pyrimidin-4-yl)-1H-pyrazol-1-yl]azetidin-3-yl}acetonitrile tris(trifluoroacetate)]
- IC50 [1]: < 10 nM
- JAK2/JAK1 IC50 ratio [2]: ≧10
